Data: paper PMC3288074, “Structural and Functional Analysis of Validoxylamine A 7′-phosphate Synthase ValL Involved in Validamycin A Biosynthesis” (PLoS ONE, 2012)

Assays:
ValL = target: T1, ValL (Streptomyces hygroscopicus, UniProt H2K885); assay: X-ray crystallography (co-crystal, […] Å); format: binding; conditions: product analog; active site between N- and C-terminal domains; 5 mM trehalose incubated, 30% trehalose in cryoprotectant; pH 8.5, MgCl2; SeMet protein
T1 construct: dimer; selenomethionine-labelled for the 3T7D data set
T1 sequence (H2K885 1-497): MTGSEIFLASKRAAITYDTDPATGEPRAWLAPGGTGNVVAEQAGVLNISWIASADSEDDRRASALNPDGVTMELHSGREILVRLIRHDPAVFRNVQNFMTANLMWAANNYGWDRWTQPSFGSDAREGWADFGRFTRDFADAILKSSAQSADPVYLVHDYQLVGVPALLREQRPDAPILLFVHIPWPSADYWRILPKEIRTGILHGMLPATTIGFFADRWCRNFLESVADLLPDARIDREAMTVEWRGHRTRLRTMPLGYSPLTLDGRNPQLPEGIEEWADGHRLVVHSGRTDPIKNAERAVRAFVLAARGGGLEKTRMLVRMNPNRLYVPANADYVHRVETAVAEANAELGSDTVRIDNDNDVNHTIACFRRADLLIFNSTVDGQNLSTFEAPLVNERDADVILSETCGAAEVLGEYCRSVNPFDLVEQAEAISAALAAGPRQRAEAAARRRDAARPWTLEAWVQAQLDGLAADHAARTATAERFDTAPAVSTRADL

[1] = target: the molecule itself; assay: dynamic scattering; in solution; data not shown; conditions not given

OC[C@H]1O[C@H](O[C@H]2O[C@H](CO)[C@@H](O)[C@H](O)[C@H]2O)[C@H](O)[C@@H](O)[C@@H]1O [trehalose]
X-ray crystallography (co-crystal, 1.7 Å) (ValL): The co-crystallization of ValL/trehalose led to the determination of ValL/trehalose complex structure.

B1: Validoxylamine A 7'-phosphate synthase ValL (enzyme)
chain: TGSEIFLASKRAAITYDTDPATGEPRAWLAPGGTGNVVAEQAGVLNISWIASADSEDDRRASALNPDGVTMELHSGREILVRLIRHDPAVFRNVQNFMTANLMWAANNYGWDRWTQPSFGSDAREGWADFGRFTRDFADAILKSSAQSADPVYLVHDYQLVGVPALLREQRPDAPILLFVHIPWPSADYWRILPKEIRTGILHGMLPATTIGFFADRWCRNFLESVADLLPDARIDREAMTVEWRGHRTRLRTMPLGYSPLTLDGRNPQLPEGIEEWADGHRLVVHSGRTDPIKNAERAVRAFVLAARGGGLEKTRMLVRMNPNRLYVPANADYVHRVETAVAEANAELGSDTVRIDNDNDVNHTIACFRRADLLIFNSTVDGQNLSTFEAPLVNERDADVILSETCGAAEVLGEYCRSVNPFDLVEQAEAISAALAAGPRQRAEAAARRRDAARPWTLEAWVQAQLDGLAADHAARTATAERFDTAPAVSTRADL
notes: ValL, validoxylamine A 7'-phosphate synthase of the validamycin A gene cluster of Streptomyces hygroscopicus var. jinggangensis 5008; the encoded protein has 497 aa; gene valL cloned into pET28a between EcoRI and BamHI sites; Removal of the tag is not mentioned; The ValL/trehalose structure (3T7D) was obtained from selenomethionine-labelled ValL; the apo structure (3T5T) from native ValL; also …
stoichiometry N [1]: 2
